In patent publication US11691992B2 (Anacor Pharmaceuticals, Inc., priority 2017, dated 2023):
pIC50: −log10 of the molar value.

Tested on: STIB719/ILRAD560 T. vivax (drug sensitive) strain
Test: Ex vivo Alamar Blue 48 h drug sensitivity assay for T. vivax
Format: cell-based
Conditions: Trypanosoma vivax, ex vivo bloodstream forms from mouse, 45 hrs + 3 hrs resazurin, read-out: IC50: I Hypoxanthine Incorporation T. vivax STIB 719/ILRA D 560, 2 d
Description: Example 109. Ex Vivo Alamar Blue 48 h Drug Sensitivity Assay for T. vivax
[…] Test compounds were prepared as 10 mg/mL DMSO stocks for each assay run. Compounds were assayed in at least three separate, independent test runs and an 11-point dilution curve was used to determine the IC50 values. Bloodstream form trypanosomes were propagated and harvested from a highly parasitemic mouse (via cardiac puncture) and were incubated with test compounds for 45 hrs at 37° C. in a humidified atmosphere containing 5% CO2, supported in HMI media containing 20% bovine serum. […] Plates were then read using a fluorescent plate reader (Spectramax, Gemini XS, Bucher Biotec, Basel, Switzerland) using an excitation wavelength of 536 nm and an emission wavelength of 588 nm. Data points were averaged to generate sigmoidal dose-response curves and IC50 values were determined using Softmax Pro 5.2 software.

O=C(Nc1ccc2c(c1)B(O)OC2)c1cn(-c2ccc(F)cc2)nn1 [Example 60, 1-(4-Fluorophenyl)-N-(1-hydroxy-1,3-dihydrobenzo[c][1,2]oxaborol-6-yl)-1H-1,2,3-triazole-4-carboxamide]
pIC50: 6.30 to 6.70
